Reference: patent US11247976B2, “Synthetic ligands that modulate the activity of the RhlR quorum sensing receptor” (Wisconsin Alumni Research Foundation, priority 2016, dated 2022)
Entries after “also recorded” stand apart in the source; their conditions may differ. Where two headings read alike, the source gives them in different places. Marks after values point to notes of the source that are not given here.

Columns and labels:
LasR = biological target: T1, LasR (Pseudomonas aeruginosa, UniProt P25084); test: Selectivity of RhlR agonism over LasR agonism (E. coli LasR reporter JLD271/pJN105L/pSC11); format: cell-based, P. aeruginosa; settings: RhlR % activity divided by LasR % activity, > = negligible activity in LasR reporter
T1 construct: expressed in transfected cells; host or cells: E. coli JLD271 (ΔsdiA) with pJN105L and pSC11
Method: (§1) All media and reagents for bacterial culture were purchased from commercial sources. Bacteria were cultured in Luria-Bertani broth (LB) at 37° C. with shaking at 200 rpm unless otherwise noted. The bacterial reporter strains used for this study were (i) the heterologous E. coli strain JLD271 (ΔsdiA) harboring the RhlR expression plasmid pJN105R2 and the rhlI-lacZ transcriptional fusion reporter pSC11-rhlI*, (ii) the heterologous E. coli strain JLD271 (ΔsdiA) harboring the LasR expression plasmid pJN105L and the […] transcriptional fusion reporter pSC11, and (iii) the P. aeruginosa strain PAO-JP2 (ΔlasrhlI) harboring the rhlI-gfp transcriptional fusion reporter prhlI-LVAgfp. Reporter strains JLD271/pJN105R2/pSC11-rhlI* and JLD271/pJN105L/pSC11 were grown in LB containing 100 μg/mL ampicillin and 10 μg/mL gentamicin. Freezer stocks of bacterial strains were maintained at −80° C. in 1:1 LB:50% glycerol.
(§2) To evaluate the modulatory activities of library compounds on RhlR and LasR using E. coli reporters, the strains JLD271/pJN105R2/pSC11-rhlI* and JLD271/pJN105L/pSC11 were used, respectively, as previously described.^38, 51 The following modifications were used in the RhlR agonism reporter assay, non-native compounds (10 μM or 1 mM) were compared to 1 mM BHL as the positive control. Briefly, a subculture was prepared by diluting an overnight culture 1:10 with fresh media containing 100 μg/mL ampicillin and 10 μg/mL gentamicin, and was incubated until it had grown to OD600=0.45. In all assays, L-arabinose was added to a final concentration of 4 mg/mL to induce RhlR expression. For RhlR agonism assays, activities of test compounds were measured relative to 1 mM BHL (the concentration required to induce a maximal level of RhlR activity). For RhlR antagonism assays, test compounds were competed against a concentration of BHL approximately equal to its EC50 value (10 μM). Activity was measured relative to 10 μM BHL. Inhibition was calculated by subtracting 100% from the relative activity value. Thus, 0% inhibition mimics represents no competitive displacement of 10 μM BHL by a test compound. In all assays, modifications were made to the standard Miller assay protocol to accommodate the use of the chlorophenol red-β-D-galactopyranoside (CPRG) β-galactosidase substrate. After cell lysis, 150 μL of the aqueous layer was transferred from each well of a solvent-resistant 96-well microtiter plate to the wells of a new clear, flat-bottom 96-well microtiter plate. CPRG (4 mg/mL in phosphate-buffered saline) was added to each well in 25 μL volumes. Plates were incubated at 30° C. until the positive control wells developed a red color (approximately 30 min). The amount of processed CPRG substrate was assessed by measuring the absorbance of each well at 570 nm. Enzymatic activity was calculated using the following equation: adjusted Miller units=1000·Abs570/(OD600·t·V),
LasR assays were processed using the protocol for the substrate ortho-nitrophenyl-β-galactoside (ONPG) as previously described elsewhere.^53; and LasR antagonism assays were performed versus the EC50 for OdDHL (2 nM).
The selectivity of certain compounds for RhlR over LasR was measured using a LasR reporter strain (details above). Table 6 provides a comparison of selectivity of RhlR agonism over LasR agonism for exemplary compounds. Table 7 provides a comparison of selectivity of RhlR antagonism over LasR antagonism for exemplary compounds.

RhlR [1] = biological target: T2, RhlR (Pseudomonas aeruginosa, UniProt P54292); test: P. aeruginosa RhlR reporter agonism assay (PAO-JP2/prhlI-LVAgfp); format: cell-based; settings: for Emax: read-out: Maximum Activation (%)
T2 construct: expressed in transfected cells; host or cells: E. coli JLD271 (ΔsdiA) with pJN105R2 (arabinose-induced) and pSC11-rhlI*

RhlR [2] = biological target: T2, RhlR; test: E. coli RhlR reporter agonism assay (JLD271/pJN105R2/pSC11-rhlI*); format: cell-based, P. aeruginosa; settings: for activation at 10 µM: compound at 10 μM, RhlR activity relative to 1 mM BHL; for Emax: read-out: Maximum Activation (%); for RhlR agonist potency in words: dose-response; for RhlR agonist activity in words: single-concentration screen at 10 μM
Method: as §1, §2
(§3) where t is the incubation time of substrate with lysate and V is the volume of culture lysed.
Because LuxR-type receptors are often unstable in solution, preventing the use of in vitro assays to directly assess small molecule agonism and antagonism, reporter gene assays represent a standard method for screening small-molecule libraries for LuxR-type receptor modulation. Previously reported strains for this purpose were used in the current study.^38 Synthetic N-butanoyl L-homoserine lactone (BHL), the native ligand of RhlR, was used as the positive control for receptor activation. Commonly, agonists are measured relative to maximum possible receptor activation within a particular assay medium;^40 because the dose-response curve of BHL is distinctly shallow in these RhlR reporters, a high concentration of BHL is required to maximally activate RhlR. In this study, activation of compounds was measured relative to that elicited by 1 mM BHL (the concentration of BHL used causes no aberrant growth effects in the reporter strain). […]

RhlR [3] = biological target: T2, RhlR; test: E. coli RhlR reporter antagonism assay vs 10 μM BHL (JLD271/pJN105R2/pSC11-rhlI*); format: cell-based, P. aeruginosa; settings: for inhibition at 10 µM: read-out: % inhibition (10 μM), compound at 10 μM in the presence of 10 μM BHL; for Maximum Inhibition (%): E. coli reporter, relative to activation of 10 μM BHL alone
Method: as §1
as §2, with “For RhlR antagonism assays, test compounds were competed against a concentration of BHL approximately equal to its EC50 value (10 μM).” left out
as §3
The RhlR-modulatory activity of the J library compounds was assessed in a heterologous reporter strain (E. coli JLD271 harboring plasmids pJN105R2 and pSC11-rhlI*) in order to isolate the RhlR receptor from upstream QS regulation (e.g. regulation by LasR). Thus, the extent to which compounds were directly modulating RhlR could be determined. These assays were performed by incubating compound-treated, mid-log phase E. coli reporter cells in 96-well microtiter plates, followed by Miller assay evaluation of ß-galactosidase activity.
RhlR agonism and antagonism screens of each compound were performed initially at 10 μM.

[4] = negative = agonism stronger than 10 μM BHL alone
[5] = read-out: % inhibition (1 mM), compound at 1 mM in the presence of 10 μM BHL, negative = agonism stronger than 10 μM BHL alone

T2 sequence (P54292 whole entry): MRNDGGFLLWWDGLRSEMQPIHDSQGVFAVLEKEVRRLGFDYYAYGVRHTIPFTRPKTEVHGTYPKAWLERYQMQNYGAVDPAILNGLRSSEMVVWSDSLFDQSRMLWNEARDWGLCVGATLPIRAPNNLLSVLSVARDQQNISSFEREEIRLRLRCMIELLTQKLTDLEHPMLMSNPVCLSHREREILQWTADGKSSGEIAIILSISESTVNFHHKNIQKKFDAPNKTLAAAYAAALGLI
T1 sequence (P25084 whole entry): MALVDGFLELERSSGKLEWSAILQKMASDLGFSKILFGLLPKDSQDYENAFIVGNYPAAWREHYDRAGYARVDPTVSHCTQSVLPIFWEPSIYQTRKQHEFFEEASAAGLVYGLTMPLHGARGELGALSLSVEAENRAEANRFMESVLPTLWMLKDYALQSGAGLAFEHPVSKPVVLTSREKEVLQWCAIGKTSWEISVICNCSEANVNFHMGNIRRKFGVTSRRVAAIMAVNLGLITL

CCCC(=O)N[C@H]1CCOC1=O [BHL, N-butanoyl L-homoserine lactone, reference compound]
Fold selectivity of RhlR agonists over LasR agonism (LasR; tested concentration 1 mM): 18 fold
Fold selectivity of RhlR agonists over LasR agonism (LasR; tested concentration 10 μm): 56 fold
EC50 (RhlR [1]): 8080 nM
Emax (RhlR [1]): 100%
EC50 (RhlR [2]): 8950 nM
Hill slope of agonism dose-response (RhlR [2]; E. coli reporter): 0.7
activation at 10 µM (RhlR [2]; E. coli reporter): 51%
Emax (RhlR [2]): 100%

CC(C)CC(=O)N[C@H]1CCOC1=O [Compound J18, isovaleryl HL]
Fold selectivity of RhlR agonists over LasR agonism (LasR; tested concentration 1 mM): >99^b fold
Fold selectivity of RhlR agonists over LasR agonism (LasR; tested concentration 10 μm): 255^ fold
EC50 (RhlR [1]): 1420 nM
Emax (RhlR [1]): 94%
inhibition at 10 µM (RhlR [3]; [4]): -62%
inhibition at 1000 µM (RhlR [3]; [5]): -123%
EC50 (RhlR [2]): 1020 nM
fold more potent than the native ligand (RhlR [2]; E. coli reporter, EC50 vs BHL): ~10 fold
activation at 10 µM (RhlR [2]; E. coli reporter): 86%
RhlR agonist potency in words (RhlR [2]; E. coli reporter): significantly more potent than BHL
Emax (RhlR [2]): 105%
RhlR agonist activity in words (RhlR [2]; E. coli reporter): comparable RhlR activation to that of BHL

O=C(N[C@H]1CCOC1=O)C1CCC1 [Compound J24, cyclobutanoyl AHL]
Fold selectivity of RhlR agonists over LasR agonism (LasR; tested concentration 1 mM): 48 fold
Fold selectivity of RhlR agonists over LasR agonism (LasR; tested concentration 10 μm): >79^b fold
EC50 (RhlR [1]): 1410 nM
Emax (RhlR [1]): 95%
inhibition at 10 µM (RhlR [3]; [4]): -66%
inhibition at 1000 µM (RhlR [3]; [5]): -110%
EC50 (RhlR [2]): 1780 nM
activation at 10 µM (RhlR [2]; E. coli reporter): 79%
RhlR agonist potency in words (RhlR [2]; E. coli reporter): significantly more potent than BHL; also recorded: rivaled in potency that of S4
Emax (RhlR [2]): 100%
RhlR agonist activity in words (RhlR [2]; E. coli reporter): strong

CCCC(=O)N[C@H]1CCSC1=O [RN8]
Fold selectivity of RhlR agonists over LasR agonism (LasR; tested concentration 1 mM): 4.5 fold
Fold selectivity of RhlR agonists over LasR agonism (LasR; tested concentration 10 μm): 17 fold
EC50 (RhlR [1]): 14300 nM
Emax (RhlR [1]): 94%
inhibition at 10 µM (RhlR [3]; [4]): -8%
inhibition at 1000 µM (RhlR [3]; [5]): -75%
EC50 (RhlR [2]): 4870 nM
activation at 10 µM (RhlR [2]; E. coli reporter): 71%
Emax (RhlR [2]): 102%

O=C(N[C@H]1CCSC1=O)C1CCC1 [RN15]
Fold selectivity of RhlR agonists over LasR agonism (LasR; tested concentration 1 mM): 11 fold
Fold selectivity of RhlR agonists over LasR agonism (LasR; tested concentration 10 μm): >88^b fold
EC50 (RhlR [1]): 1650 nM
Emax (RhlR [1]): 90%
inhibition at 10 µM (RhlR [3]; [4]): -85%
inhibition at 1000 µM (RhlR [3]; [5]): -114%
EC50 (RhlR [2]): 1720 nM
RhlR agonist potency in words (RhlR [2]; E. coli reporter): equipotent to the cyclobutanoic tail group parent, compound J24
Emax (RhlR [2]): 106%

O=C(COc1ccc(I)cc1)NC1CCCC1 [RN17]
Maximum Inhibition (%) (RhlR [3]): 31%
inhibition at 10 µM (RhlR [3]; [4]): 6%
inhibition at 1000 µM (RhlR [3]; read-out: % inhibition (1 mM), screened at a maximal concentration of 100 microM (solubility), in the presence of 10 μM BHL): 24%
activation at 10 µM (RhlR [2]; E. coli reporter): 1%

O=C(COc1ccc(I)cc1)NCC1CCCO1 (centres unmarked) [RN23]
IC50 (RhlR [3]): > 100000 nM
RhlR antagonist activity in words (RhlR [3]; E. coli reporter vs 10 μM BHL): potent antagonist activity; also recorded: negligible maximum potency difference from its head group parent compound RN10
Maximum Inhibition (%) (RhlR [3]): 56%
inhibition at 10 µM (RhlR [3]; [4]): 6%
inhibition at 1000 µM (RhlR [3]; [5]): > 50%
activation at 10 µM (RhlR [2]; E. coli reporter): 0%

CC(C)CC(=O)NC1CCCC1 [RN39]
inhibition at 10 µM (RhlR [3]; [4]): 11%
inhibition at 1000 µM (RhlR [3]; [5]): 31%
activation at 10 µM (RhlR [2]; E. coli reporter): 0%
